Assays:
[1] = RP-HPLC retention time as measure of β-peptide hydrophobicity; format: physicochemical; details: chromatographic, analytical RP-HPLC, C18 (Waters X-bridge, 4.6 mm × 250 mm), gradient 20%–80% CH3CN in water with 0.1% TFA over 5–35 min, 1 mL/minute, 0.5 to 1 mg/mL, 50 µL injected; mean ± standard deviation of triplicate measurements
Source text: β-peptides were produced by microwave-assisted Fmoc synthesis at 20−40 μmol scales and purified by RP-HPLC using a C18 column. MALDI mass spectrometry was used to validate the mass of each peptide as described previously. Retention times determined by C18 RP-HPLC were used as a measure of the relative hydrophobicity of the β-peptides (Table 1). This approach has been used previously by our group and others to assess the relative hydrophobicity of different peptide structures. Preliminary antifungal activity and mammalian toxicity evaluation were reported previously for β-peptides 1–16 as planktonic MIC against C. albicans and percent hemolysis at the MIC, respectively.
Hydrophobicity of 14-helical β-peptides was characterized by measuring retention times with an analytical RP-HPLC using a C18 column (Waters, X-bridge, column dimensions 4.6 mm × 250 mm, Milford, MA, USA). The β-peptide solutions (0.5 to 1 mg/mL, 50 µL) were injected into the HPLC at a flow rate of 1 mL/minute. Retention time was characterized in triplicate with a gradient of 20%–80% CH3CN in water containing 0.1% TFA over 5–35 min.

[2] = test system: C. albicans SC5314 biofilm formation; experiment: Biofilm formation in the presence of β-peptides, XTT; format: cell-based, Candida albicans; details: 10^6 cells/mL incubated with 2-fold dilutions of β-peptide, 37 °C, 48 h, washed, 10% or less metabolic activity vs untreated control
Procedure: C. albicans, C. glabrata, C. tropicalis, and C. parapsilosis biofilm formation in the presence of β-peptide was evaluated using a procedure used previously. Briefly, 100 μL of overnight cultures of C. albicans SC5314, C. glabrata, C. parapsilosis, and C. tropicalis adjusted to 2 × 10^6 cells/mL was added to 100 μL of two-fold serially diluted β-peptide in a 96-well plates. Peptide-free controls and cell and peptide-free controls were included for each peptide assayed and the plates were incubated at 37 °C for 48 h. After 48 h, biofilms were washed with PBS to remove non-adherent cells and the metabolic activity of biofilms grown in the presence of β-peptide was determined using XTT.
For evaluation of metabolic activities of planktonic cells and biofilms in susceptibility testing in 96-well plates, 100 μL of XTT solution was added to every well and plates were incubated at 37 °C in the dark for 1.5 h for C. albicans and 2.5 h for C. glabrata, C. parapsilosis and C. tropicalis. At the end of the incubation, 75 μL of supernatant from wells were transferred to a new plate and absorbance at 490 nm was measured. The percent metabolic activity was calculated as: Metabolic Activity (%)= (A490− A490background)/A490cell control− A490background ×100 where A490 , A490cell control , and A490background are the average absorbance values of wells containing a specific concentration of β-peptide, cell control wells without β-peptide, and media only wells, respectively. Experiments were performed in triplicate and repeated on at least two different days.

[3] = test system: human red blood cells (hRBCs); experiment: Hemolysis of human red blood cells; format: cell-based; details: red cells of human
Procedure: Table S1. Hemolysis of β-peptide 1-16, concentration of β-peptid e needed for 50% lysis of human red blood cells (hRBCs)
Peptide # Peptide Concentration at 50% Hemolysis a (HC50, µg/mL) […]
a Hemolysis assays were perfor med as previously indicated in Lee, M.R. et al., ACS Chem. Biol. (2014). Briefly, equal volumes of 2-fold dilutions of β-peptides in tris-buffered saline (TBS) were incubated with hRBCs for an hour at 37 °C. Supernatants were transferred to a new plate and absorbance was measured at 405 nm.
% hemolysis was calculated relative to positive lysis control and the concentration of peptide needed for 50% hemolysis was recorded as HC50 for that peptide. Values reported are average measurements from three independent experiments of duplicates each and the error denoted is the standard deviation. Concentration dependent hemolysis graphs can be found in Lee, M.R. et al., ACS Chem. Biol. (2014).

Hydrophobicity (HPLC Retention Time, min) [1]	Compound	MIC, Biofilm Formation (C. albicans) [2]	Peptide Concentration at 50% Hemolysis (HC50) [3]
20.4 ± 0.2 min	C[C@@H](CC(=O)N[C@@H](CCCCN)CC(=O)N[C@H]1CCCC[C@@H]1C(=O)N[C@@H](C)CC(=O)N[C@@H](CCCCN)CC(=O)N[C@H]1CCCC[C@@H]1C(=O)N[C@@H](C)CC(=O)N[C@@H](CCCCN)CC(N)=O)NC(=O)[C@H]1CCCC[C@@H]1NC(=O)C[C@@H](N)Cc1ccc(O)cc1 [Peptide 9]	–	> 400 µg/mL
23.5 ± 0.1 min	CC[C@@H](CC(=O)N[C@@H](CCCCN)CC(=O)N[C@H]1CCCC[C@@H]1C(=O)N[C@@H](CC)CC(=O)N[C@@H](CCCCN)CC(=O)N[C@H]1CCCC[C@@H]1C(=O)N[C@@H](CC)CC(=O)N[C@@H](CCCCN)CC(N)=O)NC(=O)[C@H]1CCCC[C@@H]1NC(=O)C[C@@H](N)Cc1ccc(O)cc1 [Peptide 10]	–	149 ± 20 µg/mL
24.2 ± 0.1 min	CC[C@@H](CC(=O)N[C@@H](CCCNC(=N)N)CC(=O)N[C@H]1CCCC[C@@H]1C(=O)N[C@@H](CC)CC(=O)N[C@@H](CCCNC(=N)N)CC(=O)N[C@H]1CCCC[C@@H]1C(=O)N[C@@H](CC)CC(=O)N[C@@H](CCCNC(=N)N)CC(N)=O)NC(=O)[C@H]1CCCC[C@@H]1NC(=O)C[C@@H](N)Cc1ccc(O)cc1 [Peptide 11]	–	79 ± 8 µg/mL
25.7 ± 0.1 min	CC(C)[C@@H](CC(=O)N[C@@H](CCCCN)CC(=O)N[C@H]1CCCC[C@@H]1C(=O)N[C@H](CC(=O)N[C@@H](CCCCN)CC(=O)N[C@H]1CCCC[C@@H]1C(=O)N[C@H](CC(=O)N[C@@H](CCCCN)CC(N)=O)C(C)C)C(C)C)NC(=O)[C@H]1CCCC[C@@H]1NC(=O)C[C@@H](N)Cc1ccc(O)cc1 [Peptide 12]	–	12 ± 6 µg/mL
26.5 ± 0.2 min	CC(C)[C@@H](CC(=O)N[C@@H](CCCNC(=N)N)CC(=O)N[C@H]1CCCC[C@@H]1C(=O)N[C@H](CC(=O)N[C@@H](CCCNC(=N)N)CC(=O)N[C@H]1CCCC[C@@H]1C(=O)N[C@H](CC(=O)N[C@@H](CCCNC(=N)N)CC(N)=O)C(C)C)C(C)C)NC(=O)[C@H]1CCCC[C@@H]1NC(=O)C[C@@H](N)Cc1ccc(O)cc1 [Peptide 13]	–	11 ± 2 µg/mL
24.0 ± 0.2 min	NCCCC[C@@H](CC(N)=O)NC(=O)[C@H]1CCCC[C@@H]1NC(=O)[C@H]1CCCC[C@@H]1NC(=O)C[C@H](CCCCN)NC(=O)[C@H]1CCCC[C@@H]1NC(=O)[C@H]1CCCC[C@@H]1NC(=O)C[C@H](CCCCN)NC(=O)[C@H]1CCCC[C@@H]1NC(=O)[C@H]1CCCC[C@@H]1NC(=O)C[C@@H](N)Cc1ccc(O)cc1 [Peptide 14]	–	106 ± 37 µg/mL
24.6 ± 0.2 min	N=C(N)NCCC[C@@H](CC(N)=O)NC(=O)[C@H]1CCCC[C@@H]1NC(=O)[C@H]1CCCC[C@@H]1NC(=O)C[C@H](CCCNC(=N)N)NC(=O)[C@H]1CCCC[C@@H]1NC(=O)[C@H]1CCCC[C@@H]1NC(=O)C[C@H](CCCNC(=N)N)NC(=O)[C@H]1CCCC[C@@H]1NC(=O)[C@H]1CCCC[C@@H]1NC(=O)C[C@@H](N)Cc1ccc(O)cc1 [Peptide 15]	–	73 ± 40 µg/mL
27.4 ± 0.2 min	NCCCC[C@@H](CC(N)=O)NC(=O)C[C@H](Cc1ccccc1)NC(=O)[C@H]1CCCC[C@@H]1NC(=O)C[C@H](CCCCN)NC(=O)C[C@H](Cc1ccccc1)NC(=O)[C@H]1CCCC[C@@H]1NC(=O)C[C@H](CCCCN)NC(=O)C[C@H](Cc1ccccc1)NC(=O)[C@H]1CCCC[C@@H]1NC(=O)C[C@@H](N)Cc1ccc(O)cc1 [Peptide 16]	–	3 ± 1 µg/mL

Compound	Hydrophobicity (HPLC Retention Time, min) [1]	MIC, Biofilm Formation (C. albicans) [2]	Peptide Concentration at 50% Hemolysis (HC50) [3]
C[C@@H](CC(=O)N[C@@H](CCCCN)CC(N)=O)NC(=O)[C@H]1CCCC[C@@H]1NC(=O)C[C@H](CCCCN)NC(=O)C[C@H](C)NC(=O)[C@H]1CCCC[C@@H]1NC(=O)C[C@H](CCCCN)NC(=O)C[C@H](C)NC(=O)[C@H]1CCCC[C@@H]1N [Peptide 1]	19.3 ± 0.1 min	–	–
CC[C@@H](CC(=O)N[C@@H](CCCCN)CC(N)=O)NC(=O)[C@H]1CCCC[C@@H]1NC(=O)C[C@H](CCCCN)NC(=O)C[C@H](CC)NC(=O)[C@H]1CCCC[C@@H]1NC(=O)C[C@H](CCCCN)NC(=O)C[C@H](CC)NC(=O)[C@H]1CCCC[C@@H]1N [Peptide 2]	22.5 ± 0.2 min	64 µg/mL	–
CC[C@@H](CC(=O)N[C@@H](CCCNC(=N)N)CC(N)=O)NC(=O)[C@H]1CCCC[C@@H]1NC(=O)C[C@H](CCCNC(=N)N)NC(=O)C[C@H](CC)NC(=O)[C@H]1CCCC[C@@H]1NC(=O)C[C@H](CCCNC(=N)N)NC(=O)C[C@H](CC)NC(=O)[C@H]1CCCC[C@@H]1N [Peptide 3]	23.2 ± 0.1 min	32 µg/mL	–
CC(C)[C@@H](CC(=O)N[C@@H](CCCNC(=N)N)CC(N)=O)NC(=O)[C@H]1CCCC[C@@H]1NC(=O)C[C@H](CCCNC(=N)N)NC(=O)C[C@@H](NC(=O)[C@H]1CCCC[C@@H]1NC(=O)C[C@H](CCCNC(=N)N)NC(=O)C[C@@H](NC(=O)[C@H]1CCCC[C@@H]1N)C(C)C)C(C)C [Peptide 5]	25.4 ± 0.1 min	8 µg/mL	–
NCCCC[C@@H](CC(N)=O)NC(=O)[C@H]1CCCC[C@@H]1NC(=O)[C@H]1CCCC[C@@H]1NC(=O)C[C@H](CCCCN)NC(=O)[C@H]1CCCC[C@@H]1NC(=O)[C@H]1CCCC[C@@H]1NC(=O)C[C@H](CCCCN)NC(=O)[C@H]1CCCC[C@@H]1NC(=O)[C@H]1CCCC[C@@H]1N [Peptide 6]	23.1 ± 0.2 min	–	–
N=C(N)NCCC[C@@H](CC(N)=O)NC(=O)[C@H]1CCCC[C@@H]1NC(=O)[C@H]1CCCC[C@@H]1NC(=O)C[C@H](CCCNC(=N)N)NC(=O)[C@H]1CCCC[C@@H]1NC(=O)[C@H]1CCCC[C@@H]1NC(=O)C[C@H](CCCNC(=N)N)NC(=O)[C@H]1CCCC[C@@H]1NC(=O)[C@H]1CCCC[C@@H]1N [Peptide 7]	23.8 ± 0.1 min	16 µg/mL	–
NCCCC[C@@H](CC(N)=O)NC(=O)C[C@H](Cc1ccccc1)NC(=O)[C@H]1CCCC[C@@H]1NC(=O)C[C@H](CCCCN)NC(=O)C[C@H](Cc1ccccc1)NC(=O)[C@H]1CCCC[C@@H]1NC(=O)C[C@H](CCCCN)NC(=O)C[C@H](Cc1ccccc1)NC(=O)[C@H]1CCCC[C@@H]1N [Peptide 8]	26.2 ± 0.2 min	8 µg/mL	–

— paper PMC4588179, “Antifungal Activity of 14-Helical β-Peptides against Planktonic Cells and Biofilms of Candida Species” (Pharmaceuticals, 2015)
